Measured values taken from ChEMBL document CHEMBL1201862, “PubChem BioAssay data set” (2004).
Active and inactive are the calls of the source.

Tests used:
[1] = biological target: Intestinal-type alkaline phosphatase (Homo sapiens, UniProt P09923); experiment: Dose Response confirmation of uHTS hits from a small molecule inhibitors of human intestinal alkaline phosphatase via a luminescent assay. [Related pubchem assays (depositor defined):AID2544, AID2574]; format: functional
[2] = biological target: Large T antigen (Simian virus 40, UniProt P03070); format: functional, Betapolyomavirus macacae;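 also: Confirmatory-stage PubChem screen for compounds that inhibit SV40 T antigen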
[3] = biological target: DNA dC->dU-editing enzyme APOBEC-3A (Homo sapiens, UniProt P31941); experiment: APOBEC3A DNA deaminase inhibitors, dose response, biochemical (AID 504722); format: functional
[4] = biological target: DNA dC->dU-editing enzyme APOBEC-3G (Homo sapiens, UniProt Q9HC16); experiment: Dose Response confirmation of small molecule APOBEC3G DNA Deaminase Inhibitors via a fluorescence-based single-stranded DNA deaminase assay. [Related pubchem assays (depositor defined):AID493012, AID493028]; format: functional
[5] = tested on: BJ; experiment: cytotoxicity toward BJ-TERT fibroblasts, dose response, cell-based, RAS-independent, luminescence (AID 1933); format: functional; settings: Homo sapiens
[6] = tested on: BJ; experiment: cells; format: functional, cell-based; settings: Homo sapiens
[7] = inhibitors of intracellular T. cruzi replication, confirmation, NIH3T3 host cells, beta-gal luminescence (AID 2044); format: functional, cell-based;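 also: intracellular parasites grown in NIH/3T3 mouse fibroblasts as host cells; luminescent beta-galactosidase reporter signal from transgenic T. cruzi replicating inside host cells; inhibitors lower the luminescence signal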
[8] = cytotoxicity toward NIH3T3 fibroblasts, dose response, counter-screen, cell-based, ATP luminescence, mouse fibroblasts (AID 2010); format: functional;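 also: cells exposed to compound for about 90 hours before reading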
[9] = tested on: BJ; experiment: cytotoxicity toward BJ-TERT-LT-ST fibroblasts, dose response, cell-based, RAS-independent, luminescence (AID 1935); format: functional; settings: Homo sapiens;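 also: BJ fibroblasts immortalized with TERT plus LT and ST oncogenes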
[10] = cytotoxicity toward DRD oncogenic fibroblasts, dose response, cell-based, non-viral oncogenic, luminescence (AID 1934); format: functional; settings: Homo sapiens
[11] = cytotoxicity in HEK-293T cells, dose response, cytotoxicity control for BCR NF-kB inhibitor project, luminescence, B-cell screen hits (AID 489021); format: functional, cell-based;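 also: HEK-293T cells carrying an NF-kB luciferase reporter; cells exposed to compound for about 14 hours before viability readout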
[12] = biological target: T1, Replicative DNA helicase DnaB (Mycobacterium tuberculosis, UniProt P9WMR3); experiment: DnaB intein splicing inhibitors, dose response, biochemical, cell-free fluorescence (AID 449749); format: functional
T1 sequence (P9WMR3 whole entry): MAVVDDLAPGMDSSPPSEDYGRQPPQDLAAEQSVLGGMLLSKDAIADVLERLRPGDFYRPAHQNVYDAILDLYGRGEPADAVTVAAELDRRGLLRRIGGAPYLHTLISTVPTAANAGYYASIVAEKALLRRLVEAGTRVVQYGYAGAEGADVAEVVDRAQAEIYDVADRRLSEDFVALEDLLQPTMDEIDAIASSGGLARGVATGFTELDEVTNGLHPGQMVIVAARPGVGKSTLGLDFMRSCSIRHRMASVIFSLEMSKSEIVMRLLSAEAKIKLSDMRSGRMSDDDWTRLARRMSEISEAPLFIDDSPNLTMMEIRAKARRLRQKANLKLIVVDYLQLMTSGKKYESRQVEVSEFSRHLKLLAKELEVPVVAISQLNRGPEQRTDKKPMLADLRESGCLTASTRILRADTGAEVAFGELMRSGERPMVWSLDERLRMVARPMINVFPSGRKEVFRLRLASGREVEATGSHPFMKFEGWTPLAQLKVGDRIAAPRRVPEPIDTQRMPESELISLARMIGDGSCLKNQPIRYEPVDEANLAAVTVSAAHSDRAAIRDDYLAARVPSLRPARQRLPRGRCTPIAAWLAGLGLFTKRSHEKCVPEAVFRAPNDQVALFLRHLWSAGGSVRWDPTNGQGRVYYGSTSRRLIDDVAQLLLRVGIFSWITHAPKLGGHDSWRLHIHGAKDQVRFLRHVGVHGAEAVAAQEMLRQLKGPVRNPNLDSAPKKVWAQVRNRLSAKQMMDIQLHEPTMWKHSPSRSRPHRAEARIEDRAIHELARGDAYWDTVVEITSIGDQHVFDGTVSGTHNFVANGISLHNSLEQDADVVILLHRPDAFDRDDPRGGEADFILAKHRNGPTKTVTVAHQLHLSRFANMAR

[13] = biological target: T2, Protein RecA (Mycobacterium tuberculosis, UniProt P9WHJ3); experiment: Fluorescence Cell-Free Homogeneous Dose Retest to Identify Inhibitors of RecA-Intein Splicing Activity. [Related pubchem assays (depositor defined):AID2097, AID2223, AID489010, AID492950]; format: functional
T2 sequence (P9WHJ3 whole entry): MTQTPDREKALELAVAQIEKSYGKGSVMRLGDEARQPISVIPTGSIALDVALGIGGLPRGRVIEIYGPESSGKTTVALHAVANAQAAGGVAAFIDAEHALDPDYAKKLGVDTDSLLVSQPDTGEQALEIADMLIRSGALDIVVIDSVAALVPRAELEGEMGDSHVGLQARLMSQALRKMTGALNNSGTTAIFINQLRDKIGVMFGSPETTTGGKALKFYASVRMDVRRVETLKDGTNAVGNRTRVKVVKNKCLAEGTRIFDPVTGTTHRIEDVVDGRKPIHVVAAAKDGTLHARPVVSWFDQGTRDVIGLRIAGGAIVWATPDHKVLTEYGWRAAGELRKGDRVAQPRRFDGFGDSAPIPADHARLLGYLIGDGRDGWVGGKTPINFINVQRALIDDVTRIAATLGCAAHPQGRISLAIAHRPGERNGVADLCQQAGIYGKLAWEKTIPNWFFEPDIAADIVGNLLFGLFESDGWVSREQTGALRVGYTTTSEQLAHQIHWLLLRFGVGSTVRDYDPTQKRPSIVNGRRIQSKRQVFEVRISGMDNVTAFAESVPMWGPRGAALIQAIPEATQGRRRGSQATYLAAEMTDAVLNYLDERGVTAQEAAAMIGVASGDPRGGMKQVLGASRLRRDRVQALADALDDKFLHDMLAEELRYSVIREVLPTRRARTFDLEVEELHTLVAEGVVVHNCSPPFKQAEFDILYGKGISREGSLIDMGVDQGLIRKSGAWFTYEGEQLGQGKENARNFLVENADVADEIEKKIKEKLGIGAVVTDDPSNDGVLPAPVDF

[14] = biological target: Protein Wnt-3a (Mus musculus, UniProt P27467); experiment: Wnt3a-driven reporter signaling inhibition, dose response, selectivity assay for Gli-SUFU antagonist project, Wnt-LIGHT cells, luminescence (AID 651570); format: functional; settings: read-out: IC50_Mean;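 also: Wnt-LIGHT reporter cells stimulated with conditioned medium from Wnt3a-producing cells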
[15] = biological target: Glyceraldehyde-3-phosphate dehydrogenase (Homo sapiens, UniProt P04406)
[16] = biological target: T3, Alkaline phosphatase, tissue-nonspecific isozyme (Homo sapiens, UniProt P05186); experiment: human TNAP enzyme inhibitors, SAR follow-up, biochemical, luminescent, dose response (AID 1056)
T3 sequence (P05186 whole entry): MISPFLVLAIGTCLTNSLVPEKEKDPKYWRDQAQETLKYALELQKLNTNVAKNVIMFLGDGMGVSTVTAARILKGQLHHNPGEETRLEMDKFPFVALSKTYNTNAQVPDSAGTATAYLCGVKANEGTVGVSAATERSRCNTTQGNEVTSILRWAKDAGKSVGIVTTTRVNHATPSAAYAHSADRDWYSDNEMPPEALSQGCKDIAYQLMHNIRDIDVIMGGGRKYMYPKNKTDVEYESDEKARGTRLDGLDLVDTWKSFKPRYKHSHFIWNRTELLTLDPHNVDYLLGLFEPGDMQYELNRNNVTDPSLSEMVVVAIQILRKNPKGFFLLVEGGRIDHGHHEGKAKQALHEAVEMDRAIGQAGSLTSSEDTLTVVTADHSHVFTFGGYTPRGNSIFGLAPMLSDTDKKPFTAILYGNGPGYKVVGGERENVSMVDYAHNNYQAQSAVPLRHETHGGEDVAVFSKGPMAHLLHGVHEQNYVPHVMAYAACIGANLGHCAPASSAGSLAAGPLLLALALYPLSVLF

[17] = A Cell Based Secondary Assay To Explore Cytotoxicity of Compounds that Sensitize Mycobacterium Tuberculosis to Beta-Lactam Antibiotics.; format: functional
[18] = biological target: Voltage-dependent T-type calcium channel subunit alpha-1H (Homo sapiens, UniProt O95180); format: functional;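 also: channel activity triggered by adding a high calcium stimulation buffer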
[19] = biological target: Cytochrome P450 3A4 (Homo sapiens, UniProt P08684);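 also: CYP3A4 tested as one member of a cytochrome P450 panel screen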
[20] = biological target: T4, Dual specificity protein phosphatase 6 (Rattus norvegicus, UniProt Q64346)
T4 sequence (Q64346 whole entry): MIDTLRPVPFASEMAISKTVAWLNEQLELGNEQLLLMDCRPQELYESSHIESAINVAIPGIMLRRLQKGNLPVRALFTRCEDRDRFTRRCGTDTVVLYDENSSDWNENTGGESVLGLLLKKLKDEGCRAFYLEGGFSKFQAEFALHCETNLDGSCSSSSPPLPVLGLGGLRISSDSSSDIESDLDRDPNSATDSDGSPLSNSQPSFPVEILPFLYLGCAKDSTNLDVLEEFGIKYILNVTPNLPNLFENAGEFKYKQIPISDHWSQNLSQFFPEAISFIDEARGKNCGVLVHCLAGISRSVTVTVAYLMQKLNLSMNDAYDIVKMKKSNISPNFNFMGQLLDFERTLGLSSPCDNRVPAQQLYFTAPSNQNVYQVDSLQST

[21] = biological target: T4, Dual specificity protein phosphatase 6; format: functional

Sequence of Intestinal-type alkaline phosphatase (P09923 whole entry): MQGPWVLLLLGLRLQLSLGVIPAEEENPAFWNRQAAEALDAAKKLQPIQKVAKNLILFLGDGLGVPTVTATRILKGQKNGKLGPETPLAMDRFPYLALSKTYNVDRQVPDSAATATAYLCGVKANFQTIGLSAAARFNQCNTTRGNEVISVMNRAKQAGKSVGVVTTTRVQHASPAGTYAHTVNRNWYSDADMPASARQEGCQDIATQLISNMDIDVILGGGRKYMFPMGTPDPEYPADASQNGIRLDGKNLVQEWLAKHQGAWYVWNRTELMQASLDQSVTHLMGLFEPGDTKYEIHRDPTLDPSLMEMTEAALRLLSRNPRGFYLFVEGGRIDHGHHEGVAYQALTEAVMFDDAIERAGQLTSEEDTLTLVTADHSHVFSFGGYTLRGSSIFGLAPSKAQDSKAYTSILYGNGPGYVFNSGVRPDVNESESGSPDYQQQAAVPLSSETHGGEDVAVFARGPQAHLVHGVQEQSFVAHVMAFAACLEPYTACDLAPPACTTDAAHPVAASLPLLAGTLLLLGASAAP
Sequence of Voltage-dependent T-type calcium channel subunit alpha-1H (O95180 whole entry): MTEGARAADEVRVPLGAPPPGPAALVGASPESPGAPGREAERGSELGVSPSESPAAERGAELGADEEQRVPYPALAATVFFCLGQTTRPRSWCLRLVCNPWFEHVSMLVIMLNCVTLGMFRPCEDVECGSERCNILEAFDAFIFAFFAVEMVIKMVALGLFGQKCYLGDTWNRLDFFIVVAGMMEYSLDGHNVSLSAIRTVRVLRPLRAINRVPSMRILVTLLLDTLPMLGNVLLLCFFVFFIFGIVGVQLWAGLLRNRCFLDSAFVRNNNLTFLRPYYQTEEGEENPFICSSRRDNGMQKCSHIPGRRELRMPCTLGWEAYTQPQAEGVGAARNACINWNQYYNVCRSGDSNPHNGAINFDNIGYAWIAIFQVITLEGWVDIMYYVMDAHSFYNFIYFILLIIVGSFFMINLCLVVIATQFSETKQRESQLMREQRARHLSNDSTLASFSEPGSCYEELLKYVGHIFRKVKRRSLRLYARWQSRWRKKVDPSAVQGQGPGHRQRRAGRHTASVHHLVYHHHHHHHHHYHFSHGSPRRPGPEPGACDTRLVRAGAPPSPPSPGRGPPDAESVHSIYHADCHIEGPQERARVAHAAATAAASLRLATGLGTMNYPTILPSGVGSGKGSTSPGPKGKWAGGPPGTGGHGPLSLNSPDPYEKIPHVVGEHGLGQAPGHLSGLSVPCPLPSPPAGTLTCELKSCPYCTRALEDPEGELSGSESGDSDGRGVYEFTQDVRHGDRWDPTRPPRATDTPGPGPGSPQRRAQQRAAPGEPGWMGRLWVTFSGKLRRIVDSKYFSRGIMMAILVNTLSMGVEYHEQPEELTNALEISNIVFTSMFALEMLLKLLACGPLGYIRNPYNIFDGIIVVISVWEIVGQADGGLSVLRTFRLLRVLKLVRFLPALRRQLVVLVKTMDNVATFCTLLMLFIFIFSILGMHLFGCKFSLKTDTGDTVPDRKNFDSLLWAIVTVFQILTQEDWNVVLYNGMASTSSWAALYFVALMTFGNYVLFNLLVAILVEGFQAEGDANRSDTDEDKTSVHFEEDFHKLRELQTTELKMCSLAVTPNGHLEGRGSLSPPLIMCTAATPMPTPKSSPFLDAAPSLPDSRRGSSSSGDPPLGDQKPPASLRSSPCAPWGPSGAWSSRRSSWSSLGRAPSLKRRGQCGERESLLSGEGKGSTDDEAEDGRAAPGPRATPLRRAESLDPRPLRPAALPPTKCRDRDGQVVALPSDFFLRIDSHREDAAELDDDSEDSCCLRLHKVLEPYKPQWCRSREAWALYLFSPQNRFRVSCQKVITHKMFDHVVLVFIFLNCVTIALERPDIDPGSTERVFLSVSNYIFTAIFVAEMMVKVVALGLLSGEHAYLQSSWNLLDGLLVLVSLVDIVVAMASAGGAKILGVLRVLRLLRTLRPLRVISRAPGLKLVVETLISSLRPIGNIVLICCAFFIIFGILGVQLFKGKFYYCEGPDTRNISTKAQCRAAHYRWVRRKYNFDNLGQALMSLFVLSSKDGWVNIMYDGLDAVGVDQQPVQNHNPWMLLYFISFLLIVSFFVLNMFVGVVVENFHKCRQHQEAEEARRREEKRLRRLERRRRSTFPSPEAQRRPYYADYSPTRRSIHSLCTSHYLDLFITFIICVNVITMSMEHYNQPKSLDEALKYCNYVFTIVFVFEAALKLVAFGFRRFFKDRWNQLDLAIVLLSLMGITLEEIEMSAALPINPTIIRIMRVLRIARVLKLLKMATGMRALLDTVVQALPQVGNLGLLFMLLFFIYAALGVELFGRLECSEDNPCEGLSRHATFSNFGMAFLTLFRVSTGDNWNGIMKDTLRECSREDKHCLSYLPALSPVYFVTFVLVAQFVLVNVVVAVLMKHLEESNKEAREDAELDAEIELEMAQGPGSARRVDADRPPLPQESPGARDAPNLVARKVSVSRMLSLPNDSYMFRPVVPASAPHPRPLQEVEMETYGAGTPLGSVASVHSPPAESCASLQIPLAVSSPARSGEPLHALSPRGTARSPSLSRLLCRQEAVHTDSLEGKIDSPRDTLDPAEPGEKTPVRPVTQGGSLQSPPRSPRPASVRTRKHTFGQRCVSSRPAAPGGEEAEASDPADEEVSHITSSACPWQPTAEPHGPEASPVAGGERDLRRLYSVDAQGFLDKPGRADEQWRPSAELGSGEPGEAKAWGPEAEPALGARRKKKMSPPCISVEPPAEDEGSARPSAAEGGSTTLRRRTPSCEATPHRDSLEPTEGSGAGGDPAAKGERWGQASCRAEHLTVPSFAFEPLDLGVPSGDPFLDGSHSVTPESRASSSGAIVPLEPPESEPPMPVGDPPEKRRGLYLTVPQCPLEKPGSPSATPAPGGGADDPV
Sequence of DNA dC->dU-editing enzyme APOBEC-3A (P31941 whole entry): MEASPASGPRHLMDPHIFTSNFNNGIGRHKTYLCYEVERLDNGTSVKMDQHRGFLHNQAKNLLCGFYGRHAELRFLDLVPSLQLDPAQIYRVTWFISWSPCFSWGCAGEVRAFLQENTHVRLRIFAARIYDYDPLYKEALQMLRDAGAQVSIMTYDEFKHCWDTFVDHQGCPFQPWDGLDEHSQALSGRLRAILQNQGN
Sequence of DNA dC->dU-editing enzyme APOBEC-3G (Q9HC16 whole entry): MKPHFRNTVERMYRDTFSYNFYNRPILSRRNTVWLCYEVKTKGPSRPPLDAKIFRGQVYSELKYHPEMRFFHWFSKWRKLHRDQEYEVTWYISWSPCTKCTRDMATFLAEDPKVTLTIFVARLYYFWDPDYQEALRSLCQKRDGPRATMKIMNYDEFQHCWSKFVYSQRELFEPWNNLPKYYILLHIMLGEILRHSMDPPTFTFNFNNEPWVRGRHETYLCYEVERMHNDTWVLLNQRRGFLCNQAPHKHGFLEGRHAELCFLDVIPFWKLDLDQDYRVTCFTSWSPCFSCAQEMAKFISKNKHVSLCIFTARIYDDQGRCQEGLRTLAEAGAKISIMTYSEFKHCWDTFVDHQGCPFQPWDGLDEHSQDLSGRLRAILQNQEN
Sequence of Glyceraldehyde-3-phosphate dehydrogenase (P04406 whole entry): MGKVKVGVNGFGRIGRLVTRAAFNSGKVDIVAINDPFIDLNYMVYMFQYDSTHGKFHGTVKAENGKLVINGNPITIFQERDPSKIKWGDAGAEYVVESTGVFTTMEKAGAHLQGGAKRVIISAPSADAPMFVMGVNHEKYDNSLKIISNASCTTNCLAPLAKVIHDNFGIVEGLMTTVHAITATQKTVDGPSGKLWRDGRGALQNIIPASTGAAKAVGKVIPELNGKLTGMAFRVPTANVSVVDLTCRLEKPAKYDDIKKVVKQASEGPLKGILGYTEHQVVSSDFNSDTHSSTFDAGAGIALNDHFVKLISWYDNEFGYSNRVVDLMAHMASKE
Sequence of Protein Wnt-3a (P27467 whole entry): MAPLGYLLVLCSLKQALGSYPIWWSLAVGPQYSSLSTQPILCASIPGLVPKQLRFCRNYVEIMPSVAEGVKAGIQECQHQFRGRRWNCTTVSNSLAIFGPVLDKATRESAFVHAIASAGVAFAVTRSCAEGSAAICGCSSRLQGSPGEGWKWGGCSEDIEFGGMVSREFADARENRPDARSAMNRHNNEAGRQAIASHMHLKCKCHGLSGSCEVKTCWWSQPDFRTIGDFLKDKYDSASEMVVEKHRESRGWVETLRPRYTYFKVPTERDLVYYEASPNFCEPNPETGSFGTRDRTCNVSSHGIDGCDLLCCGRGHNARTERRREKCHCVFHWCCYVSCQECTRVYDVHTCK
Sequence of Cytochrome P450 3A4 (P08684 whole entry): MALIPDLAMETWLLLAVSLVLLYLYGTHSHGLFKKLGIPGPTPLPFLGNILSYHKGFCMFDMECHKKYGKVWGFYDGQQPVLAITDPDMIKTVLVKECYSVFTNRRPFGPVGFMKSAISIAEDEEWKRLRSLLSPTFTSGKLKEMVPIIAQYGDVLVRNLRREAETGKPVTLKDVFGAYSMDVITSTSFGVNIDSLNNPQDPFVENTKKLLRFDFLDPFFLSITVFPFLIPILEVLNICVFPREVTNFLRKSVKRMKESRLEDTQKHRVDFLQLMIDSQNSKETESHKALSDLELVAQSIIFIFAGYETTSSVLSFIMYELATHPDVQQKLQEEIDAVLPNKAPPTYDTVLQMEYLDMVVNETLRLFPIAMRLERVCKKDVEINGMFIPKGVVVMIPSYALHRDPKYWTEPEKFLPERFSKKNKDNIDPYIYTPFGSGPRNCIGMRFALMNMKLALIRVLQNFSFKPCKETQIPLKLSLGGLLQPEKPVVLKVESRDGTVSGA

Which IC50 [1] does the source give for `COc1cc(Cl)ccc1OCc1cc(C(=O)N2CCCCCCC2)no1` here?
Its IC50 is > 100 µM (inactive).

With `CCSS(=O)(=O)c1cccc2cccnc12` as the compound, how does the IC50 [2] read?
The IC50 was > 100 µM (active).

What about the IC50 [3] of the same compound?
The IC50 was > 100 µM (inactive).

What about the IC50 [4] of the same compound?
The IC50 was 12.7 µM (active).

What does the source list for `COc1ccc(C(C(=O)NC2CCCCC2)N(C(=O)CCl)c2ccc(Cl)cc2)cc1` (configuration not stated)?
EC50 [5]: 0.152 µM (active); EC50 [6]: 2.51 µM (active); EC50 [7]: 0.166 µM (active); EC50 [8]: 1.23 µM (active); EC50 [9]: 4.11 µM (inconclusive); EC50 [10]: 0.681 µM (active); IC50 [11]: > 80 µM (inactive); AC50 [12]: 0.774 µM (active); EC50 [13]: 0.236 µM (active); IC50 [14]: 3.16 µM (active)

Which results are given for `CCCCc1ccc(S(=O)(=O)Nc2cnc3ccccc3c2)cc1`?
IC50 [15]: > 100 µM (not active); IC50 [16]: > 100 µM (inactive)

Which results are given for `COC(=O)CSc1nnc(S)s1`?
IC50 [3]: > 100 µM (inactive); IC50 [4]: 17 µM (active)

With `COC(=O)c1cc(C#N)c(Oc2ccccc2OC)nc1C` as the compound, how does the IC50 [1] read?
The IC50 was > 100 µM (inactive).

Which CC50 [17] does the source give for `O=C(c1cnn2c(C(F)(F)F)cc(-c3cccs3)nc12)N1CCN(C(c2ccccc2)c2ccccc2)CC1` here?
Its CC50 is > 40 µM (active).

And the EC50 [18]?
The EC50 was 6.75 µM (active).

What does the source list for `O=C(Cc1ncc(C(F)(F)F)cc1Cl)Nc1cccc(Br)c1`?
EC50 [18]: 4.24 µM (active); AC50 [19]: 14.1 µM (inconclusive)

Which IC50 [1] does the source give for `CCOc1ccc(NC(=O)CSc2nncn2C)cc1` here?
Its IC50 is > 100 µM (inactive).

Which results are given for `O=S(=O)(O)c1ccc2cc(/N=N/c3cc(S(=O)(=O)O)c4cccnc4c3O)ccc2c1`?
IC50 [15]: > 100 µM (not active); IC50 [20]: 5.1 µM (active); IC50 [21]: 4.19 µM (active)
